Assay results from US4837399A, “Napthoquinone antibiotics from fuserium solani” (The United States of America as represented by the …, priority 1988, dated 1989).
Values after ≈ are worked out from the molar mass of the structure shown.

Legend:
Type in all cases: cell-based
[1] = system: Staphylococcus aureus; test: Broth microdilution assay, Staphylococcus aureus; settings: for MIC: A = Staphylococcus aureus, complete suppression of microbial growth, read-out: Antibacterial activity (MIC)
Protocol: (§1) Purified compounds were tested for antibiotic activity by dissolving in dimethyl sulfoxide and utilizing a standard broth microdilution assay. The smallest amount of compound resulting in complete inhibition of bacterial growth is the minimum inhibitory concentration (MIC).
(§2) The organisms used in the tests were three strains of gram-positive bacteria: Staphylococcus aureus, Streptococcus pyogenes, and a strain of Staphylococcus aureus which was resistant to the antibiotic methicillin.
(§3) Antimicrobial activity of compounds was determined against a group of bacterial pathogens, using a broth microdilution assay.Pathogens tested included Staphylococcus aureus, Streptococcus pyogenes, Escherichia coli, Serratia marcescens, Proteus vulgaris, Klebsiella pneumoniae, Salmonella typhi, and Pseudomonas aeruginosa. Activity against plant pathogenic bacteria was tested by applying acetone solutions of compounds to 14 mm Whatman No. 1 filter paper discs, drying and placing four discs/plate on freshly inoculated Kings medium B plates. Pseudomonas cepacia, P. cichorii, P. fluorescens, P. syringae pv. phaseolicola, P. viridiflava, and Xanthomonas campestris were exposed to discs containing 20 μg of compound; Curtobacterium flaccumfaciens pv. poinsettiae (formerly Corynebacterium poinsettiae) was tested at 20, 40, and 80 μg/disc. Using a similar assay procedure, Alternaria citri, Colletotrichum gloeosporioides, Diplodia natalensis, Fusarium solani, F. oxysporum, Geotrichum candidium, Phomopsis citri, and Phytophthora parasitica were tested to determine the antifungal properties of the compounds.

[2] = system: Streptococcus pyogenes; test: Broth microdilution assay, Streptococcus pyogenes; settings: for MIC: B = Streptococcus pyogenes, complete suppression of microbial growth, read-out: Antibacterial activity (MIC)
Protocol: as §1, §2, §3

[3] = system: Curtobacterium flaccumfaciens pv. poinsettiae; test: Filter paper disc assay, Curtobacterium flaccumfaciens pv. poinsettiae; settings: 20, 40, and 80 μg/disc, Kings medium B plates
Protocol: as §3
They were, however, effective against gram-positive bacteria.

[4] = system: Staphylococcus aureus 95 (resistant to methicillin); test: Broth microdilution assay, Staphylococcus aureus 95 (resistant to methicillin)
Protocol: as §1, §2

[5] = system: gram-positive bacteria; test: Broth microdilution assay, gram-positive bacteria overall
Protocol: as §1, §2
as §3, with “Using a similar assay procedure, Alternaria citri, Colletotrichum gloeosporioides, Diplodia natalensis, Fusarium solani, F. oxysporum, Geotrichum candidium, Phomopsis citri, and Phytophthora parasitica were tested to determine the antifungal properties of the compounds.” left out

In the case of `COC1=CC(=O)c2c(O)c(CO)c3c(c2C1=O)OC(C)C3` (stereo not drawn) [Compound 2, 2,3-Dihydro-5-hydroxy-4-hydroxymethyl-8-methoxy-2-methyl-naphtho [1,2-b]furan-6,9-dione], the “effectiveness in control of Staphylococcus aureus (in words)” value [1] is reported as “most effective”, the MIC [1] is reported as 4 µg/mL (≈ 13.8 µM) and the MIC [2] is reported as 64 µg/mL (≈ 220 µM). For the same molecule, the “ranking of activity against Curtobacterium flaccumfaciens pv. poinsettiae” value [3] was “most active”.
`COc1cc(O)c2c(c1O)C(=O)C(CC(C)O)C(CO)C2=O` (stereo not drawn) [Compound 1, 2,3-Dihydro-5,8-dihydroxy-6-methoxy-2-hydroxymethyl-3-(2-hydroxypropyl)-1,4-naphthalenedione] was tested, and the “effectiveness in control of Staphylococcus aureus (in words)” value [1] was “most effective”, the MIC [1] was 1 µg/mL (≈ 3.22 µM) and the “preference for control of Streptococcus pyogenes (in words)” value [2] was “preferred”. The MIC [2] was 0.5 µg/mL (≈ 1.61 µM), the “preference for control of Staphylococcus aureus 95 (in words)” value [4] was “preferred” and the MIC ([4]; C = Staphylococcus aureus 95 (resistant to methicillin), complete suppression of microbial growth, read-out: Antibacterial activity (MIC)) was 4 µg/mL (≈ 12.9 µM). The “effectiveness against gram-positive bacteria (in words)” value [5] was “the most effective” and the MIC ([5]; read-out: inhibiting growth) was 0.5 to 1 µg/mL (≈ 1.61 to 3.22 µM).
In the case of `COC1=CC(=O)c2c(O)c(CO)c(CC(C)O)c(O)c2C1=O` (stereo not drawn) [Compound 3, 5,8-Dihydroxy-2-methoxy-6-hydroxymethyl-7-(2-hydroxypropyl)-1,4-naphthalenedione], the MIC [1] is reported as 1 µg/mL (≈ 3.24 µM), the MIC [2] is reported as 64 µg/mL (≈ 208 µM) and the “ranking of activity against Curtobacterium flaccumfaciens pv. poinsettiae” value [3] is reported as “followed by 1 and 3”.
